The test system of data set [1] is H1792 cells. The data set can be described thus: Trans-well invasion assay. The data set is classed as cell-based, human. Conditions: H1792, vs control RNA oligonucleotides. An excerpt:
(§1) We then tested the potential impact of piR-L-163 in cell migration and invasion, two of the properties involving ERM's biological functions (Fehon, R. G., Mclatchey, A. I. & Bretscher, A. Organizing the cell cortex: the role of ERM proteins. Nat Rev Mol Cell Biol. 11, 276-287 (2010); Hunter, K. W. Ezrin, a key component in tumor metastasis. Trends Mol. Med. 10, 201-204 (2004); Luo, Y. et al. Recognition of CD146 as an ERM-binding protein offers novel mechanisms for melanoma cell migration. Oncogene 31, 306-321 (2013); Clucas, J. & Valderrama, F. ERM proteins in cancer progression. J Cell Sci. 128, 1253 (2015)).
(§2) Briefly, 24 hrs after transfection, 6×10^4 cells were placed in the upper chamber of Matrigel Invasion Chambers (BD Bioscience) with growth factor-free Keratinocyte-SFM and the bottom chamber were exposed to Keratinocyte-SFM medium supplemented with L-Glutamine, prequalified human recombinant EGF 1-53 and BPE. Invading cells were evaluated after 12 hrs according to the manufacturer's instruction. The numbers of invading cells were adjusted 15% downwards for Ant-163 treated cells or 15% upwards for piR-L-163 treated cells to compensate the differences for the proliferation rates.

The subject of data set [2] is HBE4 cells. The data set can be described thus: Trans-well invasion assay. The data set is classed as cell-based, human. The following applies: HBE4, 12 hrs, vs Scr, after 15% downward adjustment.
From the text: as §1, §2

For another data set, the system named is p-ERM. The data set can be described thus: IP with anti-p-ERM antibody followed by RT-PCR in transfected H1792 cells. In kind it is binding, human. The following applies: H1792 cells transfected with the oligonucleotide. An excerpt: We next wanted to determine the site critical for piR-L-163's binding toP-ERM. We first analyzed the piR-L-163 sequence and identified a candidate motif “UUNNUUUNNUU” (SEQ ID NO:495) with potentially critical for the binding (FIG. 5a). We then generated 5 mutant forms of piR-L-163 named as M1-M5 (FIG. 5b and Table 3) to test their potential impact on the p-ERM binding. For this experiment, we used H1792 cells because these cells expressed extremely low level of endogenous piR-L-163 but considerable amount of p-ERM (FIG. 5c and FIG. 11a). H1792 cells were transfected with Scr (control), Ant-163, piR-L-163 (WT), or Mutant 1 (M1) to Mutant 5 (M5) RNA oligonucletides, respectively. An anti-p-ERM antibody was used for IP followed by RT-PCR using primers specific for Scr, Ant-163, piR-L-163, or M1-M5 (Table 6) to detect the corresponding oligonucleotides.
To amplify sncRNAs, we added an adaptor to the 3′ end, a process including adaptor ligation, RT and PCR (de Vanssay, A. et al. Paramutation in Drosophila linked to emergence of a piRNA-producing locus. Nature 490, 112-115 (2012); Li, Z. et al. Characterization of viral and human RNAs smaller than canonical MicroRNAs. J Virol. 83, 12751-12758 (2009)). For adaptor ligation, the adaptor /5′rapp/CTGTAGGCACCATCAAT/3′ddc/ (SEQ ID NO:499) with both 5′ and 3′ modification was used. Briefly, mixed 1 μl (10 pmol, ˜55 ng) of RNA 3′ adaptor and 4.4 μl (˜100 ng) of purified sncRNAs in a 1.5 ml EP tube; Incubated at 72° C. for 2 min, then placed on ice immediately and kept it on ice for at least 1 min; Added the following reagents (New England Biolabs) to the above tube: 0.8 μl 10×RNA ligase buffer, 1 μl RNase inhibitor, and 1 μl single strand RNA ligase; Mixed it well and incubated at 37° C. for 1 hr, then terminated the reaction at 65° C. for 15 min. For RT, SuperScript™ III First-Strand Synthesis System (Invitrogen) was used according to the manufacturer's instructions with gene specific primer (5′-[…]-3′) (SEQ ID NO:500). For PCR, a common reverse primer (5′-[…]-3′) (SEQ ID NO:501) and primers specific for individual sncRNAs (Table 6). Amplification conditions were denaturation at 95° C. for 30 s (5 min for the first cycle), annealing at 60° C. for 20 s and extension at 72° C. for 20 s (2 min for the last cycle) for 25 cycles.
For IP using anti-human Moesin or p-ERM antibodies, anti-Moesin (Clone Q480, Catalog No. 3150, Cell Signaling) or anti-p-ERM (Clone 41A3, Catalog No. 3149, Cell Signaling) antibodies were used and a rabbit IgG was used as a control. Briefly, Saturated protein G agarose beads (Sigma-Aldrich) with rabbit IgG, anti-Moesin or anti-p-ERM antibodies, respectively (1 μg antibody was used for 4 μl agarose beads) at 4° C. for 3 hrs, centrifuged at 2,200×g for 5 min, and discarded the upper aqueous phase; (2) Protein extracts prepared from cells using lysis buffer (20 mM Tris-cl, pH7.6, 150 mM NaCl, 20 mM KCl, 1.5 mM MgCl2, 0.5% NP-40, 0.5 mM PMSF) were pre-cleared using protein G agarose at 4° C. for 2 hrs, centrifuged at 2,200×g for 5 min, and transferred the upper aqueous phase to above tubes with agarose beads saturated with antibodies, respectively; Kept the tubes rotating overnight at 4° C., centrifuged at 2,200×g for 5 min, and washed the beads with lysis buffer twice; Extracted total RNAs from beads using Trizol Reagent (Life Technologies); Amplification of piR-L-163 or its mutants was performed according to the steps described in the “RT-PCR” section.

The subject of data set [3] is HBE4 cells. Kind of data set: Wound healing assay (gap closure). Conditions: HBE4, vs Scr control. In kind it is cell-based, human. An excerpt: (§3) For cell migration, we used two complementary assays. […] To compensate potential differences in the cell numbers among different treatment conditions, we seeded 10% less cells for Ant-163 treated HBE4 cells and 10% more cells for piR-L-163 transfected H1792 cells.
(§4) Two complimentary methods were used. For quantitative fluorescent dye assay, Innocyto™ Cell migration Assay kit (EMD Millipore) was used. Briefly, 24 hrs after treatment, 1×10^5 cells (10% less for Ant-163 treated cells or 10% more for piR-L-163 treated cells) were loaded to the upper chamber with growth factor-free Keratinocyte-SFM for (HBE4 cells) or serum-free DMEM (for H1792 cells) with the bottom chamber exposed to completed culture medium. Negative controls were used with 3 μM Latrunculin A. After 12 hrs incubation, fluorescence was measured using a fluorescence plate reader 485 nm (excitation) and 520 nm (emission) according to the manufacturer's instruction. For wound-healing assay, cells (24 hrs after treatment with different DNA or RNA oligonucleotides) were grown to confluence followed by scratching with a pipette tip to create a gap. The floating cells were removed and the gaps were monitored/photographed every 12 hrs.

The subject of data set [4] is H1792 cells. The data set can be described thus: Wound healing assay (gap closure). The data set is classed as cell-based, human. Conditions: H1792, vs Scr control, Ant-163 or a mutant piR-L-163.
From the text: as §3, §4

“Also recorded” adds a separate entry of the source.

Consider 2 substances from patent US10889812B2, “Short non-coding protein regulatory RNAs (sprRNAs) and methods of use” (University of Maryland, Baltimore, priority 2014, dated 2021).

“Ant-163: DNA sequence antisense to piR-L-163, SEQ ID NO:496, 5′-GGTCAGAGAATCAAAGTAACATCATGATAT-3′ (DNA, backbone and methylation of C not given here)”: the values for the invasion capability entry with H1792 cells [1] and in the data set with HBE4 cells [2] were “no impact” and “significantly increased invasion capability; also recorded: increased invading cells”, respectively. Besides, the “oligonucleotide detected by RT-PCR in anti-p-ERM IP products (binding to p-ERM)” value in the data set on p-ERM is on record as “no RT-PCR band could be detected”. Moreover, the gap closure result in the data set with HBE4 cells [3] was “faster gap closure”.
With “piR-L-163: sprRNA, SEQ ID NO:282; piRNA-L aligned to intron 10 of LAMC2; AUAUCAUGAUGUUACUUUGAUUCUCUGACC with 3′ 2′-O-methylation (listed as RNA, chemistry not fully specified; listed as Homo sapiens)”, the invasion capability entry with H1792 cells [1] is listed as “significantly decreased invasion capability; also recorded: significantly reduced the number of invading cells”. In the data set on p-ERM, the “oligonucleotide detected by RT-PCR in anti-p-ERM IP products (binding to p-ERM)” value is “strong RT-PCR band was detected”. In addition, in the data set on H1792 cells [4], the gap closure entry was “slower gap closure”.
